Results from paper PMC4579270, “Identification and Characterization of an Irreversible Inhibitor of CDK2” (Chemistry & Biology, 2015).

What was measured:
Assay in all cases: Dundee protein kinase screen
Format in all cases: biochemical
[1] = target: PKBα (Homo sapiens, UniProt P31749); details: read-out: %Remaining activity at 1µM NU6300
Experimental: (§1) Prior to determining its cellular activity, we carried out a screen to assess its selectivity against a panel of 131 protein kinases under conditions that would not distinguish between a reversible or irreversible mode of action. […] These 13 kinases and 29 additional kinases, selected for their known sensitivity to other inhibitors within the purine series, were then tested in a modified screening format in which the assay was repeated following a 4-hr pre-incubation (Table S3B). […] However, conformational flexibility around the active site may promote such an interaction with a residue from another part of the structure ([Martin et al., 2012]).
(§2) Table S3, Related to Figure 4. NCL-0006300 protein kinase selectivity. (A) NU6300 was tested at a single concentration of 1µM against 131 protein kinases present in a Dundee protein kinase screen (Bain et al., 2007). Values given are % activity remaining and are the average of duplicate measurements: 0-25% (red), 26-50% (yellow), 51-80% […]
(§3) (black) and above 81% (green). […]

[2] = target: TLK1 (Homo sapiens, UniProt Q9UKI8); details: TLK1, 1µM; read-out: %Remaining activity at 1µM NU6300
Experimental: as §1, §2, §3

[3] = target: PKBβ (Homo sapiens, UniProt P31751); details: read-out: %Remaining activity at 1µM NU6300
Experimental: as §1, §2, §3

[4] = target: PKCα (Homo sapiens, UniProt P17252); details: read-out: %Remaining activity at 1µM NU6300
Experimental: as §1, §2, §3

[5] = target: T1, TBK1 (Homo sapiens, UniProt Q9UHD2); details: TBK1, 1µM; read-out: %Remaining activity at 1µM NU6300
T1 sequence (Q9UHD2 1-729): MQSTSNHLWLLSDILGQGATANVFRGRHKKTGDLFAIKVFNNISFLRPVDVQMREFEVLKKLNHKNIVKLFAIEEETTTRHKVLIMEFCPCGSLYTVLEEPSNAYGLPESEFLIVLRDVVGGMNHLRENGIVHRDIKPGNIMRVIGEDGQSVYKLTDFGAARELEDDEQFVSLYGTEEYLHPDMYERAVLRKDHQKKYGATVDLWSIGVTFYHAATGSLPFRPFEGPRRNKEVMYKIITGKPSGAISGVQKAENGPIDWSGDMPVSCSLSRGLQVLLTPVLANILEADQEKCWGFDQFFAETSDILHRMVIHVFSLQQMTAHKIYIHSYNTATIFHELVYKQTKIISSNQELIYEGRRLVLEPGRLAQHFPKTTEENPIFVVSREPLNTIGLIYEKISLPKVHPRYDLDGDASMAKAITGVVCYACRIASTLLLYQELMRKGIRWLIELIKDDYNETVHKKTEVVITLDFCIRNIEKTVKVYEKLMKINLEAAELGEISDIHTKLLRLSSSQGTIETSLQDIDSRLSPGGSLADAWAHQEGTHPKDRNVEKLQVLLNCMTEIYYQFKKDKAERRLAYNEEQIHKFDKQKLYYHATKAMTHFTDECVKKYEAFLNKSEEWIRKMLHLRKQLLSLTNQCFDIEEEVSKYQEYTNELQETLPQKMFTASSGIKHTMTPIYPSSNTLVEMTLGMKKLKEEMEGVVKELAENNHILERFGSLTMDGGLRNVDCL
Experimental: as §1, §2, §3

[6] = target: TESK1 (Homo sapiens, UniProt Q15569); details: TESK1, 1µM; read-out: %Remaining activity at 1µM NU6300
Sequence of TESK1 (Q15569 whole entry): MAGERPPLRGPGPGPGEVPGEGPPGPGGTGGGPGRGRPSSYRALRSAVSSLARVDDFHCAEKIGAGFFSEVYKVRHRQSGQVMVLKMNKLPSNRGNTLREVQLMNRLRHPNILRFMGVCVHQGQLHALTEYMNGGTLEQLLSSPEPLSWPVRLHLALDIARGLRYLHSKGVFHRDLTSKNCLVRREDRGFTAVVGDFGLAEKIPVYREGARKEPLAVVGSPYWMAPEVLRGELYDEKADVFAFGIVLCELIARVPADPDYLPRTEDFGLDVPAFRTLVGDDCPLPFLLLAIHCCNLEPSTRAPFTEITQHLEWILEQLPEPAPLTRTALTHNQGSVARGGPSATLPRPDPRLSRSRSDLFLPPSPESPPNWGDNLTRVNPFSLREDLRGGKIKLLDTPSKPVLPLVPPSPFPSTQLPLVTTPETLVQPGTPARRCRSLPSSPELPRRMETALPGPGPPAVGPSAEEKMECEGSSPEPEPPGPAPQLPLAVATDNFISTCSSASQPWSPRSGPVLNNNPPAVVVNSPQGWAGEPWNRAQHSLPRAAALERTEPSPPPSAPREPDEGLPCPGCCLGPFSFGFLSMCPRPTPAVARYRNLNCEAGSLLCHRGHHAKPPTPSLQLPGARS
Experimental: as §1, §2, §3

[7] = target: T2, PDK1 (Homo sapiens, UniProt O15530); details: PDK1, 1µM; read-out: %Remaining activity at 1µM NU6300
T2 sequence (O15530 1-556): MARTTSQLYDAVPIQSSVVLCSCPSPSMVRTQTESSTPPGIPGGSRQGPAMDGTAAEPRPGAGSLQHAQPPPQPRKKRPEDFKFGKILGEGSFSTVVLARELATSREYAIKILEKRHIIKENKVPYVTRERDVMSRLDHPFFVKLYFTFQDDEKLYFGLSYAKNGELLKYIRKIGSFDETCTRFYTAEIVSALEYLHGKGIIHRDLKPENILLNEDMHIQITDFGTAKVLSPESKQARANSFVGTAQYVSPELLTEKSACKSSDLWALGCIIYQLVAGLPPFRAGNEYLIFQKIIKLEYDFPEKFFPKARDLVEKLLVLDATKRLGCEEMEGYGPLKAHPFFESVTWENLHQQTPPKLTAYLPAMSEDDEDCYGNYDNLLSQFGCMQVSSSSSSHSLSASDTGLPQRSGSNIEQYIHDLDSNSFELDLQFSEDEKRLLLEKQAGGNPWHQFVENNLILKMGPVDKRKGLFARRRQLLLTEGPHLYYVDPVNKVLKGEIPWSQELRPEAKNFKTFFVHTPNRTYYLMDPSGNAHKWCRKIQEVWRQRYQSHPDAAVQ
Experimental: as §1, §2, §3

[8] = target: PIM2 (Homo sapiens, UniProt Q9P1W9); details: PIM2, 1µM; read-out: %Remaining activity at 1µM NU6300
Sequence of PIM2 (Q9P1W9 whole entry): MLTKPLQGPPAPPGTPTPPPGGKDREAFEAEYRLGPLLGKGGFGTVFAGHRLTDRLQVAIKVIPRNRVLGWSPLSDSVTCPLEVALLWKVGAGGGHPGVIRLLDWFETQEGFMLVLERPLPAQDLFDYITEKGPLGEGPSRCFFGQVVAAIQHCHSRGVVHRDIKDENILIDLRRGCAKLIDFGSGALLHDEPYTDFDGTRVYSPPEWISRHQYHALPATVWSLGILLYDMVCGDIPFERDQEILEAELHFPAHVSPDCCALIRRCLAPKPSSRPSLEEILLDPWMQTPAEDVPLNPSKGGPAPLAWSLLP
Experimental: as §1, §2, §3

[9] = target: WNK1 (Homo sapiens, UniProt Q9H4A3); details: WNK1, 1µM; read-out: %Remaining activity at 1µM NU6300
Sequence of WNK1 (Q9H4A3 whole entry): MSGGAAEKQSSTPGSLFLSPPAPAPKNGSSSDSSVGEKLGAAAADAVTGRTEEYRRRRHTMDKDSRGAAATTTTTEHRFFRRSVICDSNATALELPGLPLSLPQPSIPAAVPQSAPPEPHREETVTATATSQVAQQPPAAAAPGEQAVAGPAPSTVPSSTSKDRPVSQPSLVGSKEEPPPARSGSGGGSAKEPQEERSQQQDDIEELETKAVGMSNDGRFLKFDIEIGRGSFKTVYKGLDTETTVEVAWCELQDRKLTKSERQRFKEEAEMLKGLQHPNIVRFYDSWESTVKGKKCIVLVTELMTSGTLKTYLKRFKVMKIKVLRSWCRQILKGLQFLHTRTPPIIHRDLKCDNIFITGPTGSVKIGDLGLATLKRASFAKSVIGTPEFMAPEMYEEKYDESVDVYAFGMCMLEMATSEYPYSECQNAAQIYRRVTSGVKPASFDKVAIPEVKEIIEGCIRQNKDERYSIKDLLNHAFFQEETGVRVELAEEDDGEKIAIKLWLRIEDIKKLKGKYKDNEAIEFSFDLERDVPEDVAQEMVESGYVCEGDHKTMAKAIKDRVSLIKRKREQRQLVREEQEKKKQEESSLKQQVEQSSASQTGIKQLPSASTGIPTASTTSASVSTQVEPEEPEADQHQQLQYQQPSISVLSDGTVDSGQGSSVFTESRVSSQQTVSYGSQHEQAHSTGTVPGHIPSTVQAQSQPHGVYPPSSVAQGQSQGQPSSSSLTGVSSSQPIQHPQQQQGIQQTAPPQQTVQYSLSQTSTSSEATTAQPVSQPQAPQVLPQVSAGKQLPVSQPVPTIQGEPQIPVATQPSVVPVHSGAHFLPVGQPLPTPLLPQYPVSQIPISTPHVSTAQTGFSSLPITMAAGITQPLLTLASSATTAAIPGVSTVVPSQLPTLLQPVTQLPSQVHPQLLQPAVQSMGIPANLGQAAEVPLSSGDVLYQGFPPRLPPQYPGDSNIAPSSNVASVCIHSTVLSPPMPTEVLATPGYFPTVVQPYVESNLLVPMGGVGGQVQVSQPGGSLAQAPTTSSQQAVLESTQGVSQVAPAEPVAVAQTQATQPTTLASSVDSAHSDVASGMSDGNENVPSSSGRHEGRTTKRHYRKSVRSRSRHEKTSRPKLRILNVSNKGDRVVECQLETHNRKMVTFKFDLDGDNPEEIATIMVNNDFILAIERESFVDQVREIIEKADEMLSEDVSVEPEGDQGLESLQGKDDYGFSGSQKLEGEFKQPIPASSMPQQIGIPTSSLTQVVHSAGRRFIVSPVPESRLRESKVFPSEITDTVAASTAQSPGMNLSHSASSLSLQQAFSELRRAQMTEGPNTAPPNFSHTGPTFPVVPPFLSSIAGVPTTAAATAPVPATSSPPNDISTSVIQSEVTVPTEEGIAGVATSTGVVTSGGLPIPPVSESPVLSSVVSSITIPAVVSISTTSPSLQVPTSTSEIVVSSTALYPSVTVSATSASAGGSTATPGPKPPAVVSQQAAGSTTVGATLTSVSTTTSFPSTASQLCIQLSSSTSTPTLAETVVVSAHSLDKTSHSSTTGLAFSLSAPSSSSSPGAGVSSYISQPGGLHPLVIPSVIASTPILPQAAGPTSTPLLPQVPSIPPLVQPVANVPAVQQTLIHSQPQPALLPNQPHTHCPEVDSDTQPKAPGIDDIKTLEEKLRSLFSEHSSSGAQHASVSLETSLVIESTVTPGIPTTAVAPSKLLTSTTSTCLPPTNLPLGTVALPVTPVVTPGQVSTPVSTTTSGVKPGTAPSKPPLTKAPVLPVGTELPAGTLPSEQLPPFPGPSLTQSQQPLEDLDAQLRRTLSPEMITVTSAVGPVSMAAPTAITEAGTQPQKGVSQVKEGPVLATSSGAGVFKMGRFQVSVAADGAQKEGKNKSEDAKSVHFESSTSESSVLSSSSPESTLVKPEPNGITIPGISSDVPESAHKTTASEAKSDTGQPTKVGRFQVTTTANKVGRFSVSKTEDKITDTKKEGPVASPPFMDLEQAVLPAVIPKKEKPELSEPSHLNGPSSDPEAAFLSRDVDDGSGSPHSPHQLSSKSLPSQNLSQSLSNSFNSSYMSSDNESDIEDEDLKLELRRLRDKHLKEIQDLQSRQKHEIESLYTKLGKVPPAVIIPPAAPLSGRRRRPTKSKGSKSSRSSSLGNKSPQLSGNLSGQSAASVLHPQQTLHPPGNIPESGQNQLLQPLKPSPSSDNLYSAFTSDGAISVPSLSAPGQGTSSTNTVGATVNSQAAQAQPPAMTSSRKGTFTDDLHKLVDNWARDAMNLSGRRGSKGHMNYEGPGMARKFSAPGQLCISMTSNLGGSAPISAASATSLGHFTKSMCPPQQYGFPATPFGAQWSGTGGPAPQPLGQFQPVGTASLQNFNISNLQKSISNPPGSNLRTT
Experimental: as §1, §2, §3

[10] = target: RSK2 (Homo sapiens, UniProt P51812); details: RSK2, 1µM; read-out: %Remaining activity at 1µM NU6300
Experimental: as §1, §2, §3

[11] = target: ROCK 2 (Homo sapiens, UniProt O75116); details: ROCK 2, 1µM; read-out: %Remaining activity at 1µM NU6300
Experimental: as §1, §2, §3

[12] = target: MST3 (Homo sapiens, UniProt Q9Y6E0); details: MST3, 1µM; read-out: %Remaining activity at 1µM NU6300
Sequence of MST3 (Q9Y6E0 whole entry): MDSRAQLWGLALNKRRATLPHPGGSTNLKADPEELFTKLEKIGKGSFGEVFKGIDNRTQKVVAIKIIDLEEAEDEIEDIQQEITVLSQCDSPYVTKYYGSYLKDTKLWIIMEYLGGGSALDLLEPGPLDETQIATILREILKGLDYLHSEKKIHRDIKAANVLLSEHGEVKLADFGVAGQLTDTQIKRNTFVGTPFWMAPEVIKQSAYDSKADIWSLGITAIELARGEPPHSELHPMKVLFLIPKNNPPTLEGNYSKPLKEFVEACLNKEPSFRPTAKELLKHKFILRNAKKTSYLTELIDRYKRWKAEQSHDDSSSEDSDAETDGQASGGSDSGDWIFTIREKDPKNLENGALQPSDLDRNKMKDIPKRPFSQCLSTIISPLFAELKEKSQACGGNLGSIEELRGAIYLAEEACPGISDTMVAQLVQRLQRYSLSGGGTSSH
Experimental: as §1, §2, §3

[13] = target: MSK1 (Homo sapiens, UniProt O75582); details: MSK1, 1µM; read-out: %Remaining activity at 1µM NU6300
Experimental: as §1, §2, §3

[14] = target: SRPK1 (Homo sapiens, UniProt Q96SB4); details: SRPK1, 1µM; read-out: %Remaining activity at 1µM NU6300
Experimental: as §1, §2, §3

[15] = target: PLK1 (Homo sapiens, UniProt P53350); details: PLK1, 1µM; read-out: %Remaining activity at 1µM NU6300
Experimental: as §1, §2, §3

Sequence of PKBα (P31749 whole entry): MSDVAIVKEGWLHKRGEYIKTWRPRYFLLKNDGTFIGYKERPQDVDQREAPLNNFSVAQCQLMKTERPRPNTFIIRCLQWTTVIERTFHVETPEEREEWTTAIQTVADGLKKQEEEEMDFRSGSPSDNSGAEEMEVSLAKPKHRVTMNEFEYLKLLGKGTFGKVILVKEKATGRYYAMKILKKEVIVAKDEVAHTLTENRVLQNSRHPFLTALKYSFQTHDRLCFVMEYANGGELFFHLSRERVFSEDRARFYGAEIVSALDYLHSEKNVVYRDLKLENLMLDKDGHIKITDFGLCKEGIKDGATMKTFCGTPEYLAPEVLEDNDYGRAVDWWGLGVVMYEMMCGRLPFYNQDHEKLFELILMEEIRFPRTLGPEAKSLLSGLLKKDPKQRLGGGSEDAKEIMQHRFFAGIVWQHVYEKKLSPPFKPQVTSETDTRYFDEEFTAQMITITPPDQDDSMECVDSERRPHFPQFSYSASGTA

SMILES: C=CS(=O)(=O)c1ccc(Nc2nc(OCC3CCCCC3)c3nc[nH]c3n2)cc1 [NU6300, 6-(cyclohexylmethoxy)-N-(4-(vinylsulfonyl)phenyl)-9H-purin-2-amine]
- remaining activity at 1 µM [1]: 101%
- remaining activity at 1 µM [2]: 52%
- remaining activity at 1 µM [3]: 89%
- remaining activity at 1 µM [4]: 86%
- remaining activity at 1 µM [5]: 45%
- remaining activity at 1 µM [6]: 78%
- remaining activity at 1 µM [7]: 29%
- remaining activity at 1 µM [8]: 96%
- remaining activity at 1 µM [9]: 103%
- remaining activity at 1 µM [10]: 54%
- remaining activity at 1 µM [11]: 25%
- remaining activity at 1 µM [12]: 54%
- remaining activity at 1 µM [13]: 69%
- remaining activity at 1 µM [14]: 71%
- remaining activity at 1 µM [15]: 90%
